23 compounds from US11021467B2, “Phosphatidylinositol 3-kinase inhibitors” (Gilead Sciences, Inc., priority 2014, dated 2021) can be followed below.

Holding throughout (assay): TR-FRET enzymatic activity assay against PI3K isoforms
Holding throughout (type): biochemical

One assay addresses PI3Kβ (Homo sapiens (Human), UniProt P42338). The settings on record: for IC50: PI3Kβ, TR-FRET, 2×Km ATP, 30 minutes at 25° C.; for PI3Kγ/PI3Kβ ratio: ratio of IC50 values, selectivity for PI3Kβ over PI3Kγ. From the text:
(§1) The compounds of formula (I) were characterized for their enzymatic activity against the PI3K isoforms. […] TR-FRET monitored the formation of 3,4,5-inositol triphosphate molecule that competed with fluorescently labeled PIP3 for binding to the GRP-1 pleckstrin homology domain protein.
(Time-resolved FRET reads energy transfer from a long-lived donor to a nearby acceptor.)

The target in a further assay is PI3Kγ (Homo sapiens (Human), UniProt P48736). The settings on record: 2×Km ATP, 30 minutes at 25° C.
Chain of PI3Kγ (P48736 whole entry): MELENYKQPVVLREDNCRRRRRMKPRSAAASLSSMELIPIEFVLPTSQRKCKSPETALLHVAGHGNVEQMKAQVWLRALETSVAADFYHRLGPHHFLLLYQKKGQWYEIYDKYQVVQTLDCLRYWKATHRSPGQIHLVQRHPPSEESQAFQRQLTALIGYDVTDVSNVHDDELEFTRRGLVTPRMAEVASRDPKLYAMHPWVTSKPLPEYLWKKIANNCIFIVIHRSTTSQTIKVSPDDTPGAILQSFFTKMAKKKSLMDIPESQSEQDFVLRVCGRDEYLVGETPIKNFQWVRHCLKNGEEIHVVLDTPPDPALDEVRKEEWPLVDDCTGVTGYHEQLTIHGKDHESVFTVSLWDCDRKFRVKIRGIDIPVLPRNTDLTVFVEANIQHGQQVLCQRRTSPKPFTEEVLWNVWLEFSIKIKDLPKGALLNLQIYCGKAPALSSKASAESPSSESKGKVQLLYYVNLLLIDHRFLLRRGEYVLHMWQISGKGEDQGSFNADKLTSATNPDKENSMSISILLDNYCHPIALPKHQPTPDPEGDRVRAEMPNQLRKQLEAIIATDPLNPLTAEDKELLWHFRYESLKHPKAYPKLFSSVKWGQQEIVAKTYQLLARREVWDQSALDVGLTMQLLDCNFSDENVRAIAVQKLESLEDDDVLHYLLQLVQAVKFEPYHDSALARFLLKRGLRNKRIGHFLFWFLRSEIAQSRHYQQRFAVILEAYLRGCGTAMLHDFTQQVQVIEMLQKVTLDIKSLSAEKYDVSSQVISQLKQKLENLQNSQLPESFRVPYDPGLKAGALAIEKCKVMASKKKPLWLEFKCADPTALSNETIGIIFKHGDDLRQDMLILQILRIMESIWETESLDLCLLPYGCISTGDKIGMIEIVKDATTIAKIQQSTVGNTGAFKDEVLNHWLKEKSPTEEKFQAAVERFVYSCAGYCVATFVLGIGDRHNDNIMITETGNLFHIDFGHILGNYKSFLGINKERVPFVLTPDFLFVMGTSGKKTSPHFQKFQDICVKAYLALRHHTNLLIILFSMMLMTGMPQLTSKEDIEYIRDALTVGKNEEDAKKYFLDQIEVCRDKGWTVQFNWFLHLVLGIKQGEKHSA
From the text: as §1

The next assay deals with PI3Kδ (Homo sapiens (Human), UniProt O00329). The settings on record: 2×Km ATP, 30 minutes at 25° C.
Chain of PI3Kδ (O00329 whole entry): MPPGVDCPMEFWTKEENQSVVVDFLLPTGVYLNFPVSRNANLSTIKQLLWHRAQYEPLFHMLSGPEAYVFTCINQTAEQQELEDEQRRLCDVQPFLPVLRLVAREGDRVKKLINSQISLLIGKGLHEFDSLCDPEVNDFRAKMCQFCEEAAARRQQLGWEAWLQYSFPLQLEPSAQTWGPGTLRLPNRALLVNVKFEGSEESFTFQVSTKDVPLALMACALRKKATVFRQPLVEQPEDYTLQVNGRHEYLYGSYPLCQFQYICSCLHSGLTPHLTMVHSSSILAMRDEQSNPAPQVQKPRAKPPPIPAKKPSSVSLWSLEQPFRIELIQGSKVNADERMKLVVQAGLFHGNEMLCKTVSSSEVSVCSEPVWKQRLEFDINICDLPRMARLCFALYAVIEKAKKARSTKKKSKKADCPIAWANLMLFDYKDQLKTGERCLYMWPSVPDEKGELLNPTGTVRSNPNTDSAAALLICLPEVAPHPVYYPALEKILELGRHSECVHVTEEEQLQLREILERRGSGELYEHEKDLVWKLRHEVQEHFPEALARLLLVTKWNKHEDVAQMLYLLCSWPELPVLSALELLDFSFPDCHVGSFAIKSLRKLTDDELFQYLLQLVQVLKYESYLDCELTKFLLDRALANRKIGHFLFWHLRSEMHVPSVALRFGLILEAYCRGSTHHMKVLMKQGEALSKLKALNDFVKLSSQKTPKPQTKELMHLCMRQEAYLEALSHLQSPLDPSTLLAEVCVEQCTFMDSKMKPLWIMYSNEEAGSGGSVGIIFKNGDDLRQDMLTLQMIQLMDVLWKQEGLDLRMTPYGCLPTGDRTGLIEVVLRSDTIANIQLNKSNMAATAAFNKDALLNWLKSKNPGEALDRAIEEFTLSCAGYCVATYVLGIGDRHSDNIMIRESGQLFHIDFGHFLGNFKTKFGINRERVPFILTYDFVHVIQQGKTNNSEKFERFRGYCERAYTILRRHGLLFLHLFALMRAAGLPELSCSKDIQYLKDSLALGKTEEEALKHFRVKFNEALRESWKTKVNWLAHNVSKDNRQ
Chain of PI3Kδ (P27986 whole entry partner): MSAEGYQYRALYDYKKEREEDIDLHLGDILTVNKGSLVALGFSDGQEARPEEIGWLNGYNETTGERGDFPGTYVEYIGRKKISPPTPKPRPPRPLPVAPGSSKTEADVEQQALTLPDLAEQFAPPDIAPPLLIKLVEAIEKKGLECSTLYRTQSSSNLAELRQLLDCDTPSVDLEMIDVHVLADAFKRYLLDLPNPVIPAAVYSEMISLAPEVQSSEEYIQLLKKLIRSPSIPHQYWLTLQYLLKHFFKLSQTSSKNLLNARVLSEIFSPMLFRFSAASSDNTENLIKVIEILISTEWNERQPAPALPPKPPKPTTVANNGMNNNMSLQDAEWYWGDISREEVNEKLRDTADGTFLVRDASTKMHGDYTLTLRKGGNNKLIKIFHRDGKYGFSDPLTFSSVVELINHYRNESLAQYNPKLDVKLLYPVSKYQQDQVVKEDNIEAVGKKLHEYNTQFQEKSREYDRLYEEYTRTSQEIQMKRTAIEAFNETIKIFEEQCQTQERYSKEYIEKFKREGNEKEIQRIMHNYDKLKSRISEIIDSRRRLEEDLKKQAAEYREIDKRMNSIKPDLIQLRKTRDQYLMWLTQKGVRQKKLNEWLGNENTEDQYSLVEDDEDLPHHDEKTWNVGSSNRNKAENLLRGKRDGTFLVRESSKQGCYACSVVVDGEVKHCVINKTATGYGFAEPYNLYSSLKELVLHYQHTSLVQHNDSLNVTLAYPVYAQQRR
From the text: as §1

Chain of PI3Kβ (P42338 whole entry, the tested form may be a part, canonical isoform): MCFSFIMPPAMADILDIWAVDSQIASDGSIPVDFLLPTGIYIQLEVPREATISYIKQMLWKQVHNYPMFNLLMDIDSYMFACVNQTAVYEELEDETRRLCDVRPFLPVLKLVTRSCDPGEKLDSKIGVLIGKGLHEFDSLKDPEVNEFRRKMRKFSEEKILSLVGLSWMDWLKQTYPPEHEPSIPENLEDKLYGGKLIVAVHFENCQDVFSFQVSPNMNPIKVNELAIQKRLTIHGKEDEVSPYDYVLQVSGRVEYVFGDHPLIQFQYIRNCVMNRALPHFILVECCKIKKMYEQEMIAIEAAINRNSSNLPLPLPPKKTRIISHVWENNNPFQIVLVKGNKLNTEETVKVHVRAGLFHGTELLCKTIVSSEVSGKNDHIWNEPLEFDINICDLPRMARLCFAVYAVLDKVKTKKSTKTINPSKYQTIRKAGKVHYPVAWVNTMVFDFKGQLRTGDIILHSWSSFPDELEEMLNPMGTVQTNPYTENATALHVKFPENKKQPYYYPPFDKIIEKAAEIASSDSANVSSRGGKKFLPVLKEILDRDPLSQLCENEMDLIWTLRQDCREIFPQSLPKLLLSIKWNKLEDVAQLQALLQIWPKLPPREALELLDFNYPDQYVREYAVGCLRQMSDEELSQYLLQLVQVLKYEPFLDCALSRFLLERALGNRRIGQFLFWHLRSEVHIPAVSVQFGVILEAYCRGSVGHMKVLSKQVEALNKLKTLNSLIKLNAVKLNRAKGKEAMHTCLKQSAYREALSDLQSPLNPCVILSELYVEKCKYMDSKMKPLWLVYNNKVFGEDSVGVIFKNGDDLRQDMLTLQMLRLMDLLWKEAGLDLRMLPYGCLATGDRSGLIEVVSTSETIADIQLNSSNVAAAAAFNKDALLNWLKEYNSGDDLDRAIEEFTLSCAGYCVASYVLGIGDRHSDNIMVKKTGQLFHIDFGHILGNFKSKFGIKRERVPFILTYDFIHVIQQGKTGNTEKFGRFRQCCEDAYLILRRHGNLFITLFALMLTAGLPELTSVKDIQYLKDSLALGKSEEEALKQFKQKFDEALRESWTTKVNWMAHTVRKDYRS
Chain of PI3Kβ (P27986 whole entry partner, the tested form may be a part, canonical isoform): as the sequence (P27986 whole entry partner) above

`C[C@H](Nc1nc(N)nc(N)c1C#N)c1nc2cccc(Cl)c2c(=O)n1CC1CCCNC1` (stereo in doubt) [Compound 123, 2,4-diamino-6-(((S)-1-(5-chloro-4-oxo-3-((R)-piperidin-3-ylmethyl)-3,4-dihydroquinazolin-2-yl)ethyl)amino)pyrimidine-5-carbonitrile]: the IC50 on PI3Kβ is 79 nM; against PI3Kγ, 1300 nM; against PI3Kδ it was 3 nM.
On the same counts, the results for `C[C@H](Nc1nc(N)nc(N)c1C#N)c1nc2cccc(Cl)c2c(=O)n1CC1CCCNC1` (stereo in doubt) [Compound 124, 2,4-diamino-6-(((S)-1-(5-chloro-4-oxo-3-((S)-piperidin-3-ylmethyl)-3,4-dihydroquinazolin-2-yl)ethyl)amino)pyrimidine-5-carbonitrile] are 88 nM, 3200 nM and 2 nM.
Take `N#Cc1c(N)nc(N)nc1N[C@@H](c1ccccc1)c1nc2cccc(Cl)c2c(=O)n1CCCN` [Compound 1, (S)-2,4-diamino-6-(((3-(3-aminopropyl)-5-chloro-4-oxo-3,4-dihydroquinazolin-2-yl)(phenyl)methyl)amino)pyrimidine-5-carbonitrile]: the IC50 at PI3Kβ was 27 nM; against PI3Kγ, ≥ 10000 nM; at PI3Kδ it was 9 nM.
The corresponding values for `C[C@H](Nc1ncnc2scnc12)c1nc2cccc(Cl)c2c(=O)n1CCC(C)(C)N` [Compound 2, (S)-3-(3-amino-3-methylbutyl)-5-chloro-2-(1-(thiazolo[5,4-d]pyrimidin-7-ylamino)ethyl)quinazolin-4(3H)-one] are 1500 nM, ≥ 10000 nM and 27 nM.
With `C[C@H](Nc1ncnc(N)c1C#N)c1nc2cccc(Cl)c2c(=O)n1CCC(C)(C)N` [Compound 3, (S)-4-amino-6-((1-(3-(3-amino-3-methylbutyl)-5-chloro-4-oxo-3,4-dihydroquinazolin-2-yl)ethyl)amino)pyrimidine-5-carbonitrile], the IC50 against PI3Kβ is 1300 nM; on PI3Kγ, ≥ 10000 nM; against PI3Kδ, 15 nM.
On the same counts, the results for `C[C@H](Nc1nc(N)nc(N)c1C#N)c1nc2cccc(Cl)c2c(=O)n1CCCNc1ncccn1` [Compound 4, (S)-2,4-diamino-6-((1-(5-chloro-4-oxo-3-(3-(pyrimidin-2-ylamino)propyl)-3,4-dihydroquinazolin-2-yl)ethyl)amino)pyrimidine-5-carbonitrile] are 420 nM, 660 nM and 5 nM.
With `C[C@H](Nc1nc(N)nc(N)c1C#N)c1nc2cccc(Cl)c2c(=O)n1CCCNc1ccccn1` [Compound 5, (S)-2,4-diamino-6-((1-(5-chloro-4-oxo-3-(3-(pyridin-2-ylamino)propyl)-3,4-dihydroquinazolin-2-yl)ethyl)amino)pyrimidine-5-carbonitrile], the figures for the IC50 at PI3Kβ, against PI3Kγ and against PI3Kδ were 930 nM, 2200 nM and 5 nM, respectively.
On to `C[C@H](Nc1ncnc(N)c1C#N)c1nc2cccc(Cl)c2c(=O)n1CCCNCc1ccccc1` [Compound 6, (S)-4-amino-6-((1-(3-(3-(benzylamino)propyl)-5-chloro-4-oxo-3,4-dihydroquinazolin-2-yl)ethyl)amino)pyrimidine-5-carbonitrile], for which the IC50 is 250 nM on PI3Kβ, ≥ 10000 nM on PI3Kγ and 9 nM against PI3Kδ.
`C[C@H](Nc1nc(N)nc(N)c1Cl)c1nc2cccc(Cl)c2c(=O)n1CCCN` [Compound 7, (S)-3-(3-aminopropyl)-5-chloro-2-(1-((2,6-diamino-5-chloropyrimidin-4-yl)amino)ethyl)quinazolin-4(3H)-one]: the IC50 was 140 nM at PI3Kβ, ≥ 10000 nM against PI3Kγ and 35 nM at PI3Kδ.
On the same counts, the results for `C[C@H](Nc1nc(N)nc(N)c1C#N)c1nc2cccc(Cl)c2c(=O)n1CCCNCc1ccccc1` [Compound 8, (S)-2,4-diamino-6-((1-(3-(3-(benzylamino)propyl)-5-chloro-4-oxo-3,4-dihydroquinazolin-2-yl)ethyl)amino)pyrimidine-5-carbonitrile] are 68 nM, 1700 nM and 5 nM.
Take `C[C@H](Nc1nc(N)nc(N)c1C#N)c1nc2cccc(Cl)c2c(=O)n1N(CCN)Cc1ccccc1` [Compound 9, (S)-2,4-diamino-6-((1-(3-((2-aminoethyl)(benzyl)amino)-5-chloro-4-oxo-3,4-dihydroquinazolin-2-yl)ethyl)amino)pyrimidine-5-carbonitrile]: the IC50 against PI3Kβ is 170 nM; against PI3Kγ, ≥ 10000 nM; against PI3Kδ, 77 nM.
As to `C[C@H](Nc1nc(N)nc(N)c1C#N)c1nc2cccc(Cl)c2c(=O)n1N(CCN)Cc1ccccc1` [Compound 10, (S)-2,4-diamino-6-((1-(3-((2-aminoethyl)(benzyl)amino)-5-chloro-4-oxo-3,4-dihydroquinazolin-2-yl)ethyl)amino)pyrimidine-5-carbonitrile], the IC50 against PI3Kβ was 840 nM; at PI3Kγ, ≥ 10000 nM; at PI3Kδ, 480 nM.
In the case of `C[C@H](Nc1ncnn2ccnc12)c1nc2cccc(Cl)c2c(=O)n1N(C)CCN` [Compound 11, (S)-3-((2-aminoethyl)(methyl)amino)-5-chloro-2-(1-(imidazo[2,1-f][1,2,4]triazin-4-ylamino)ethyl)quinazolin-4(3H)-one], the IC50 is 93 nM at PI3Kβ, ≥ 10000 nM against PI3Kγ and 37 nM against PI3Kδ.
Regarding `C[C@H](Nc1ncnc(N)c1C#N)c1nc2cccc(Cl)c2c(=O)n1N(CCN)Cc1ccccc1` [Compound 12, (S)-4-amino-6-((1-(3-((2-aminoethyl)(benzyl)amino)-5-chloro-4-oxo-3,4-dihydroquinazolin-2-yl)ethyl)amino)pyrimidine-5-carbonitrile], the IC50 against PI3Kβ was 300 nM; against PI3Kγ, ≥ 10000 nM; on PI3Kδ, 52 nM.
On the same counts, the results for `C[C@H](Nc1ncnc(N)c1C#N)c1nc2cccc(Cl)c2c(=O)n1N(CCN)Cc1ccccc1` [Compound 13, (S)-4-amino-6-((1-(3-((2-aminoethyl)(benzyl)amino)-5-chloro-4-oxo-3,4-dihydroquinazolin-2-yl)ethyl)amino)pyrimidine-5-carbonitrile] are 6800 nM, ≥ 10000 nM and 3300 nM.
Consider `C[C@H](Nc1nc(N)nc(N)c1C#N)c1nc2cccc(Cl)c2c(=O)n1N(C)CCN` [Compound 14, (S)-2,4-diamino-6-((1-(3-((2-aminoethyl)(methyl)amino)-5-chloro-4-oxo-3,4-dihydroquinazolin-2-yl)ethyl)amino)pyrimidine-5-carbonitrile], for which the IC50 on PI3Kβ was found to be 9 nM; against PI3Kγ, 1900 nM; on PI3Kδ, 2 nM.
The corresponding values for `C[C@H](Nc1nc(N)nc(N)c1C#N)c1nc2cccc(Cl)c2c(=O)n1N(C)CCN` [Compound 15, (S)-2,4-diamino-6-((1-(3-((2-aminoethyl)(methyl)amino)-5-chloro-4-oxo-3,4-dihydroquinazolin-2-yl)ethyl)amino)pyrimidine-5-carbonitrile] are 2 nM, 1700 nM and 3 nM.
The corresponding values for `C[C@H](Nc1ncnc(N)c1C#N)c1nc2cccc(Cl)c2c(=O)n1N(C)CCN` [Compound 16, (S)-4-amino-6-((1-(3-((2-aminoethyl)(methyl)amino)-5-chloro-4-oxo-3,4-dihydroquinazolin-2-yl)ethyl)amino)pyrimidine-5-carbonitrile] are 42 nM, ≥ 10000 nM and 7 nM.
Take `C[C@H](Nc1ncnc(N)c1C#N)c1nc2cccc(Cl)c2c(=O)n1N(C)CCN` [Compound 17, (S)-4-amino-6-((1-(3-((2-aminoethyl)(methyl)amino)-5-chloro-4-oxo-3,4-dihydroquinazolin-2-yl)ethyl)amino)pyrimidine-5-carbonitrile]: the figures for the IC50 on PI3Kβ, at PI3Kγ and at PI3Kδ were 69 nM, ≥ 10000 nM and 11 nM, respectively.
On to `C[C@H](NC(=O)c1nccnc1N)c1nc2cccc(Cl)c2c(=O)n1CCCN` [Compound 18, (S)-3-amino-N-(1-(3-(3-aminopropyl)-5-chloro-4-oxo-3,4-dihydroquinazolin-2-yl)ethyl)pyrazine-2-carboxamide], for which the IC50 against PI3Kβ was 360 nM; on PI3Kγ it was ≥ 10000 nM; at PI3Kδ, 370 nM.
The corresponding values for `C[C@H](Nc1ncnc2[nH]cnc12)c1nc2cccc(Cl)c2c(=O)n1CCCN1CCOCC1` [Compound 19, (S)-2-(1-((9H-purin-6-yl)amino)ethyl)-5-chloro-3-(3-morpholinopropyl)quinazolin-4(3H)-one] are 1300 nM, ≥ 10000 nM and 14 nM.
With `Cc1ncnc(N[C@@H](C)c2nc3cccc(Cl)c3c(=O)n2CCCN)c1C#N` [Compound 23, (S)-4-((1-(3-(3-aminopropyl)-5-chloro-4-oxo-3,4-dihydroquinazolin-2-yl)ethyl)amino)-6-methylpyrimidine-5-carbonitrile], the IC50 against PI3Kβ was 90 nM; at PI3Kγ, ≥ 10000 nM; against PI3Kδ, 25 nM.
In the case of `C[C@H](Nc1nc(N)nc(N)c1C#N)c1nc2cccc(Cl)c2c(=O)n1-c1ccccc1` [Compound X, (S)-2,4-diamino-6-((1-(5-chloro-4-oxo-3-phenyl-3,4-dihydroquinazolin-2-yl)ethyl)amino)pyrimidine-5-carbonitrile, reference compound], the PI3Kγ/PI3Kβ ratio is on record as 0.6 at PI3Kβ and “less than 1” on PI3Kβ (listed as (S)-2,4-diamino-6-(1-(5-chloro-4-oxo-3-phenyl-3,4-dihydroquinazolin-2-yl)ethyl)).

One may read the IC50 as the concentration at which inhibition is half-maximal.
